From EP4678638A1, “NEW E3 UBIQUITIN LIGASE LIGAND, PROTEIN DEGRADATION AGENT AND USE THEREOF” (priority 2023, dated 2024)

Target: T1, human Cereblon WT GST-tagged protein (Homo sapiens, UniProt Q96SW2)
T1 construct: purchased CISBIO 64BDCRBNPEH
Test: CRBN binding, HTRF (CEREBLON BINDING kit)
Conditions: HTRF; for inhibition at 0.5 µM / inhibition at 2 µM: Table II-2, CRBN binding screening; for inhibition at 0.5 µM: read-out: Inhibition rate (%) at 0.5µM; for inhibition at 2 µM: read-out: Inhibition rate (%) at 2 µM; for IC50: Table II-1, CRBN binding
Protocol: The CEREBLON BINDING kits (specification: 10,000 tests; product number: Catalog # 64BDCRBNPEH; CISBIO company) was used to determine the CRBN binding ability of the compounds to be tested through a HTRF method (homogeneous time-resolved fluorescence). The specific methods are as follows: • 1. […] Then, 2.5 µL of human Cereblon WT GST-tagged protein solution was added to each well. Finally, 5 µL of the thoroughly mixed Thalidomide-Re reagent and GST Eu antibody working solution were added to each of the aforementioned wells. […] The blank control wells were sequentially added with 2.5 µL of diluent #9 (1X) solution, 2.5 µL of binding buffer, and 5 µL of thoroughly mixed Thalidomide-Re reagent and GST Eu antibody working solution. • 4. After sealing and incubating the solutions in the aforementioned wells at room temperature for 3 hours, the […] at emission wavelengths of 620 nm and 665 nm were detected by the HTRF method using a Spark microplate reader (V3.1 SP1).

T1 sequence (Q96SW2 whole entry): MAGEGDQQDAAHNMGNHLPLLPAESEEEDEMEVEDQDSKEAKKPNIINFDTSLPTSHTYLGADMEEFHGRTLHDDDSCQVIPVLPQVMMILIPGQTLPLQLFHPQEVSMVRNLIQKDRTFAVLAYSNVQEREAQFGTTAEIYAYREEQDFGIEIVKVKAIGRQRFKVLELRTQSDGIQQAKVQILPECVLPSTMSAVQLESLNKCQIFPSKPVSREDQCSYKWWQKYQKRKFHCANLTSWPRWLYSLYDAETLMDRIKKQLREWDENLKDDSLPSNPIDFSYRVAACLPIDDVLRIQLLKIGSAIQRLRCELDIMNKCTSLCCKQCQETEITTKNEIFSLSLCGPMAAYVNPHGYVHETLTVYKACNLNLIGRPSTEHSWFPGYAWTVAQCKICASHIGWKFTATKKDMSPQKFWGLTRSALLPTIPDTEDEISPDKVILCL

Row | Structure (SMILES) | inhibition at 0.5 µM [%] | inhibition at 2 µM [%] | IC50 [µM]
1 | Cc1ccc(C(=O)Nc2ccc(N3CCC(N(C)Cc4ccc(C5CCC(=O)NC5=O)cc4)CC3)c(C(F)(F)F)c2)cc1C#Cc1cnc2cccnn12 (centres unmarked) [GT-04106, N-(4-(4-((4-(2,6-dioxopiperidin-3-yl)benzyl)(methyl)amino)piperidin-1-yl)-3-(trifluoromethyl)phenyl)-3-(imidazo[1,2-b]pyridazin-3-ylethynyl)-4-methylbenzamide] | 40 to 53 | 60 to 80 | –
2 | Cc1ccc(C(=O)Nc2ccc(N3CCC(N(C)Cc4ccc(C5CCC(=O)NC5=O)c(F)c4)CC3)c(C(F)(F)F)c2)cc1C#Cc1cnc2cccnn12 (centres unmarked) [GT-04107, N-(4-(4-((4-(2,6-dioxopiperidin-3-yl)-3-fluorobenzyl)(methyl)amino)piperidin-1-yl)-3-(trifluoromethyl)phenyl)-3-(imidazo[1,2-b]pyridazin-3-ylethynyl)-4-methylbenzamide] | 30 to 40 | 80 to 100 | –
3 | Cn1cc(-c2cc(S(C)(=O)=O)ccc2OCc2ccc(C3CCC(=O)NC3=O)c(F)c2)c2cc[nH]c2c1=O (centres unmarked) [GT-04640, 3-(2-fluoro-4-((2-(6-methyl-7-oxo-6,7-dihydro-1H-pyrrolo[2,3-c]pyridin-4-yl)-4-(methylsulfonyl)phenoxy)methyl)phenyl)piperidine-2,6-dione] | 60 to 80 | 80 to 100 | –
4 | Cn1cc(-c2cc(S(C)(=O)=O)ccc2OCc2ccc(N3CCC(=O)NC3=O)c(F)c2)c2cc[nH]c2c1=O [GT-04643, 1-(2-fluoro-4-((2-(6-methyl-7-oxo-6,7-dihydro-1H-pyrrolo[2,3-c]pyridin-4-yl)-4-(methylsulfonyl)phenoxy)methyl)phenyl)dihydropyrimidine-2,4(1H,3H)-dione] | 30 to 40 | 60 to 80 | –
5 | Cn1cc(-c2cc(S(C)(=O)=O)ccc2OCc2ccc(N3CCC(=O)NC3=O)cc2)c2cc[nH]c2c1=O [GT-04645, 1-(4-((2-(6-methyl-7-oxo-6,7-dihydro-1H-pyrrolo[2,3-c]pyridin-4-yl)-4-(methylsulfonyl)phenoxy)methyl)phenyl)dihydropyrimidine-2,4(1H,3H)-dione] | 20 to 30 | 53 to 60 | –
6 | O=C1CCN(c2cccc(CN3CCN(C4CCN(c5ccc([C@@H]6c7ccc(O)cc7CC[C@@H]6c6ccccc6)cc5)CC4)CC3)c2)C(=O)N1 [GT-04685, 1-(3-((4-(1-(4-((1R,2S)-6-hydroxy-2-phenyl-1,2,3,4-tetrahydronaphthalen-1-yl)phenyl)piperidin-4-yl)piperazin-1-yl)methyl)phenyl)dihydropyr imidine-2,4(1H,3H)-dione] | – | – | 0.5 to 1
7 | O=C1CCN(c2ccc(CN3CCN(C4CCN(c5ccc([C@@H]6c7ccc(O)cc7CC[C@@H]6c6ccccc6)cc5)CC4)CC3)cc2)C(=O)N1 [GT-04686, 1-(4-((4-(1-(4-((1R,2S)-6-hydroxy-2-phenyl-1,2,3,4-tetrahydronaphthalen-1-yl)phenyl)piperidin-4-yl)piperazin-1-yl)methyl)phenyl)dihydropyr imidine-2,4(1H,3H)-dione] | – | – | 1 to 1.9
8 | O=C1CCN(c2ccc(CN3CCN(C4CCN(c5ccc([C@@H]6c7ccc(O)cc7CC[C@@H]6c6ccccc6)cc5)CC4)CC3)c(F)c2)C(=O)N1 [GT-04687, 1-(3-fluoro-4-((4-(1-(4-((1R,2S)-6-hydroxy-2-phenyl-1,2,3,4-tetrahydronaphthalen-1-yl)phenyl)piperidin-4-yl)piperazin-1-yl)methyl)phenyl)dihydropyr imidine-2,4(1H,3H)-dione] | – | – | 1 to 1.9
9 | O=C1CCN(c2ccc(CN3CCN(C4CCN(c5ccc([C@@H]6c7ccc(O)cc7CC[C@@H]6c6ccccc6)cc5)CC4)CC3)cc2F)C(=O)N1 [GT-04738, 1-(2-fluoro-4-((4-(1-(4-((1R,2S)-6-hydroxy-2-phenyl-1,2,3,4-tetrahydronaphthalen-1-yl)phenyl)piperidin-4-yl)piperazin-1-yl)methyl)phenyl)dihydropyr imidine-2,4(1H,3H)-dione] | – | – | 1 to 1.9
10 | O=C1CCN(c2ccc(CCl)nc2)C(=O)N1 [GT-06984, 1-(6-(Chloromethyl)pyridin-3-yl)dihydropyrimidine-2,4(1H,3H)-dione] | 30 to 40 | 60 to 80 | –
11 | CN(c1nccnc1CNc1nc(Nc2ccc(N3CCN(Cc4cc(C5CCC(=O)NC5=O)cnc4F)CC3)cc2)ncc1C(F)(F)F)S(C)(=O)=O (centres unmarked) [GT-07397, N-(3-(((2-((4-(4-((5-(2,6-dioxopiperidin-3-yl)-2-fluoropyridin-3-yl)methyl)piperazin-1-yl)phenyl)amino)-5-(trifluoromethyl)pyrimidin-4-yl)amino)methyl)pyrazin-2-yl)-N-methylmethanesulfonamide] | 30 to 40 | 60 to 80 | –
12 | CN(c1nccnc1CNc1nc(Nc2ccc(N3CCN(Cc4ccc(C5CCC(=O)NC5=O)cc4)CC3)cc2)ncc1C(F)(F)F)S(C)(=O)=O (centres unmarked) [GT-07399, N-(3-(((2-((4-(4-(4-(2,6-dioxopiperidin-3-yl)benzyl)piperazin-1-yl)phenyl)amino)-5-(trifluoromethyl)pyrimidin-4-yl)amino)methyl)pyrazin-2-yl)-N-methylmethanesulfonamide] | 10 to 20 | 60 to 80 | –
13 | CN(c1nccnc1CNc1nc(Nc2ccc(N3CCN(Cc4ccc(N5CCC(=O)NC5=O)cn4)CC3)cc2)ncc1C(F)(F)F)S(C)(=O)=O [GT-07403, N-(3-(((2-((4-(4-((5-(2,4-dioxotetrahydropyrimidin-1(2H)-yl)pyridin-2-yl)methyl)piperazin-1-yl)phenyl)amino)-5-(trifluoromethyl)pyrimidin-4-yl)amino)methyl)pyrazin-2-yl)-N-methylmethanesulfonamide] | 30 to 40 | 60 to 80 | –
14 | CC(=O)c1c(C)c2cnc(Nc3ccc(N4CCN(Cc5cncc(N6CCC(=O)NC6=O)c5)CC4)cn3)nc2n(C2CCCC2)c1=O [GT-07482, 1-(5-((4-(6-((6-acetyl-8-cyclopentyl-5-methyl-7-oxo-7,8-dihydropyrido[2,3-d]pyrimidin-2-yl)amino)pyridin-3-yl)piperazin-1-yl)methyl)pyridin-3-yl)dihydropyrimidine-2,4(1H,3H)-dione] | 20 to 30 | 80 to 100 | –
15 | CC(=O)c1c(C)c2cnc(Nc3ccc(N4CCN(Cc5ccc(C6CCC(=O)NC6=O)cn5)CC4)cn3)nc2n(C2CCCC2)c1=O (centres unmarked) [GT-07483, 3-(6-((4-(6-((6-acetyl-8-cyclopentyl-5-methyl-7-oxo-7,8-dihydropyrido[2,3-d]pyrimidin-2-yl)amino)pyridin-3-yl)piperazin-1-yl)methyl)pyridin-3-yl)piperidine-2,6-dione] | 53 to 60 | 80 to 100 | –
16 | CC(=O)c1c(C)c2cnc(Nc3ccc(N4CCN(Cc5cncc(C6CCC(=O)NC6=O)c5)CC4)cn3)nc2n(C2CCCC2)c1=O (centres unmarked) [GT-07485, 3-(5-((4-(6-((6-acetyl-8-cyclopentyl-5-methyl-7-oxo-7,8-dihydropyrido[2,3-d]pyrimidin-2-yl)amino)pyridin-3-yl)piperazin-1-yl)methyl)pyridin-3-yl)piperidine-2,6-dione] | 53 to 60 | 80 to 100 | –
17 | COc1cc2nn(C3CCN(Cc4ccc(C5CCC(=O)NC5=O)cn4)CC3)cc2cc1NC(=O)c1cccc(C(F)(F)F)n1 (centres unmarked) [GT-07534, N-(2-(1-((5-(2,6-dioxopiperidin-3-yl)pyridin-2-yl)methyl)piperidin-4-yl)-6-methoxy-2H-indazol-5-yl)-6-(trifluoromethyl)picolinamide] | 10 to 20 | 53 to 60 | –
18 | COc1cc2nn(C3CCN(Cc4cncc(C5CCC(=O)NC5=O)c4)CC3)cc2cc1NC(=O)c1cccc(C(F)(F)F)n1 (centres unmarked) [GT-07536, N-(2-(1-((5-(2,6-dioxopiperidin-3-yl)pyridin-3-yl)methyl)piperidin-4-yl)-6-methoxy-2H-indazol-5-yl)-6-(trifluoromethyl)picolinamide] | 10 to 20 | 53 to 60 | –
19 | CC(C)(O)c1cc2nn(C3CCN(Cc4cncc(N5CCC(=O)NC5=O)c4)CC3)cc2cc1NC(=O)c1cccc(C(F)(F)F)n1 [GT-07540, N-(2-(1-((5-(2,4-dioxotetrahydropyrimidin-1(2H)-yl)pyridin-3-yl)methyl)piperidin-4-yl)-6-(2-hydroxypropan-2-yl)-2H-indazol-5-yl)-6-(trifluoromethyl)picolinamide] | 30 to 40 | 53 to 60 | –
20 | CC(C)(O)c1cc2nn(C3CCN(Cc4ccc(C5CCC(=O)NC5=O)cn4)CC3)cc2cc1NC(=O)c1cccc(C(F)(F)F)n1 (centres unmarked) [GT-07541, N-(2-(1-((5-(2,6-dioxopiperidin-3-yl)pyridin-2-yl)methyl)piperidin-4-yl)-6-(2-hydroxypropan-2-yl)-2H-indazol-5-yl)-6-(trifluoromethyl)picolinamide] | 40 to 53 | 60 to 80 | –
21 | COc1cc2nn(C3CCN(Cc4cc(C5CCC(=O)NC5=O)cnc4F)CC3)cc2cc1NC(=O)c1cccc(C(F)(F)F)c1 (centres unmarked) [GT-07547, N-(2-(1-((5-(2,6-dioxopiperidin-3-yl)-2-fluoropyridin-3-yl)methyl)piperidin-4-yl)-6-methoxy-2H-indazol-5-yl)-3-(trifluoromethyl)benzamide] | 40 to 53 | 80 to 100 | –
